Where a name gives a salt, the structure may show the parent alone.
Experiments:
resistant form of EPSPS = test: EPSPS assay of plant extracts +/- 0.1 mM glyphosate, resistant form; format: biochemical, rice; conditions: 0.1 mM N-(phosphonomethyl)glycine, 0.1 mM 14C-PEP, 0.75 mM shikimate-3-Pi, estimated
Procedure: (§1) Assays are carried out generally according to the radiochemical method of Padgette et al 1987 (Archives of Biochemistry and Biophysics, 258(2) 564-573) with K+ ions as the major species of cationic counterion. Assays in a total volume of 50 μl, in 50 mM Hepes(KOH) pH 7.0 at 25° C., contain purified enzyme or plant extract (see below) diluted appropriately in Hepes pH 7.0 containing 10% glycerol, and 5 mM DTT, ^14C PEP either as variable substrate (for kinetic determinations) or fixed at 100 or 250 μM and shikimate 3 Phosphate (K+ salt) at 2 or 0.75 mM as indicated. Optionally, for assays of crude plant extracts, assays also contain 5 mM KF and/or 0.1 mM ammonium molybdate. Assays are started with the addition of ^14C phosphoenolpyruvate (cyclohexylammonium+salt) and stopped after 2-10 minutes (2 minutes is preferable) with the addition of 50 μl of a solution of 1 part 1M acetic acid and 9 parts ethanol. […] Apparent Km and Vmax values are determined by least squares fit to a hyperbola with simple weighting using the Grafit 3.09b from Erithacus Software Ltd. Km values are generally ascertained using 8-9 concentrations of variable substrate ranging from Km/2-10 Km and triplicate points. […]

[1] = system: sensitive w/t form of EPSPS (endogenous); test: EPSPS assay of plant extracts +/- 0.1 mM glyphosate, sensitive w/t form; format: biochemical, corn; conditions: 0.1 mM N-(phosphonomethyl)glycine, 0.1 mM 14C-PEP, 0.75 mM shikimate-3-Pi
Procedure: as §1

[2] = target: T1, mutant form of rice EPSPS (Oryza sativa, UniProt A0A0N9WU17, P177S/T173I); test: EPSPS enzyme assay and kinetic constants, purified mutant rice EPSPS expressed in E. coli; format: biochemical
T1 sequence (A0A0N9WU17 72-515 T173I/P177S): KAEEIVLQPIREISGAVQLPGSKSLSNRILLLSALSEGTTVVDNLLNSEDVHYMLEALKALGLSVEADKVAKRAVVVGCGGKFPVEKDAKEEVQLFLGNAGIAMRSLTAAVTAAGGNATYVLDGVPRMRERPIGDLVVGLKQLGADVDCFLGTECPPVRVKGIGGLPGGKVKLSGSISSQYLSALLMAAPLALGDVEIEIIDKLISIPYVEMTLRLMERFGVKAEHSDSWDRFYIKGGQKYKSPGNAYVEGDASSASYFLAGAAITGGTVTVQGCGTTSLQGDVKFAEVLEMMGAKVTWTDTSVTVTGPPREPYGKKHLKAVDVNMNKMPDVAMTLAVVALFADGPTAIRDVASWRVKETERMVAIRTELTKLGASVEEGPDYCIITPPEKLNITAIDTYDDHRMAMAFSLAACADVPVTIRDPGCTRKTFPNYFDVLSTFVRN
Procedure: as §1

SMILES | inhibition of resistant (tolerant) EPSPS (resistant form of EPSPS) | inhibition of resistant (tolerant) EPSPS (resistant form of EPSPS; listed as N-(phosphonomethyl)glycine) | inhibition of sensitive w/t EPSPS [1] | IC50 [2] | Ki [2]
O=C(O)CNCP(=O)(O)O [glyphosate, N-phosphonomethylglycine] | ~8% | < 8.5% | > 98% |  | 
O=C(O)CNCP(=O)(O)O [potassium salt of glyphosate] |  |  |  | ~600 µM | ~200 µM

Reference: patent publication US6867293B2, “Polynucleotide constructs having at least one transcriptional enhancer and encoding a modified rice EPSPS enzyme” (Syngenta Limited, priority 2000, dated 2005)
